These results are taken from patent US6727205B2, “Plant growth regulators and methods for control and/or suppression of annual bluegrass” (BASF Aktiengesellschaft, priority 2001, dated 2004).

The subject of experiment [1] is annual bluegrass (Poa Annua). In words: Seed/biomass effect on annual bluegrass at Day 212. The format is in vivo. Conditions: for Biomass Dry Weight: control (none) 251. The protocol: (§1) In this evaluation, annual bluegrass (Poa Annua) was grown, and the compounds were applied at various growth stages of the annual bluegrass as depicted in Table Ia using a randomized complete block design of four replications with ten treatments including one untreated control. The compounds were applied using water as the carrier. The results shown in Table Ib depict control of annual bluegrass, which includes browning, necrosis, melt-down and plant death. The results shown in Table Ic depict the amount of seeds on the plants and on the ground for the various treatments.

Experiment [2] relates to annual bluegrass (Poa Annua). Nature of the experiment: Percent control of annual bluegrass (browning, necrosis, melt-down, plant death). The format is in vivo. As for the experimental part:
as §1

Turning to `CP(=O)(O)CCC(N)C(=O)O` (centres unmarked) [Glufosinate-Ammonium, 2-amino-4-(hydoxymethylphosphinyl)butanoic acid], the “Seeds on Ground” value amounted to 34 g/5 sq ft in experiment [1] (application time E, control (none) 30) and 816 seeds/0.3 g in experiment [1] (application time E, control (none) 669). Moreover, the “Seeds on Plant” value was found to be 32 g/5 sq ft in experiment [1] (application time E, control (none) 37) and 1000 seeds/0.3 g in experiment [1] (application time E, control (none) 864). Moreover, in experiment [1] (application time E), the “Biomass Dry Weight” value was 184 g/5 sq ft. In addition, the “% Control at Days After First Treatment (DAT)” value (“% Control” below) in experiment [2] (17 DAT, application time A (seedling, day 1), rate 0.375 lb/A (420)) amounted to 80%; in experiment [2] (43 DAT, application time A (seedling, day 1), rate 0.375 lb/A (420)), 80%; in experiment [2] (43 DAT, application time C (tillering, day 35), rate 0.375 lb/A (420)), 10%; in experiment [2] (77 DAT, application time A (seedling, day 1), rate 0.375 lb/A (420)), 74%; in experiment [2] (77 DAT, application time C (tillering, day 35), rate 0.375 lb/A (420)), 96%; in experiment [2] (151 DAT, application time A (seedling, day 1), rate 0.375 lb/A (420)), 33%. Moreover, the “% Control” value came out at 74% in experiment [2] (151 DAT, application time C (tillering, day 35), rate 0.375 lb/A (420)); 93% in experiment [2] (151 DAT, application time E (flowering, day 136), rate 0.375 lb/A (420)); 3% in experiment [2] (172 DAT, application time A (seedling, day 1), rate 0.375 lb/A (420)); 45% in experiment [2] (172 DAT, application time C (tillering, day 35), rate 0.375 lb/A (420)); 65% in experiment [2] (172 DAT, application time E (flowering, day 136), rate 0.375 lb/A (420)); 0% in experiment [2] (204 DAT, application time A (seedling, day 1), rate 0.375 lb/A (420)). Besides, the “% Control” value in experiment [2] (204 DAT, application time C (tillering, day 35), rate 0.375 lb/A (420)) was 18%; in experiment [2] (204 DAT, application time E (flowering, day 136), rate 0.375 lb/A (420)) it was 8%.

As for `CCC(=O)C1=C([O-])CC(C(=O)[O-])CC1=O.[Ca+2]` (centres unmarked) [Prohexadione-Calcium, calsium 3,5-dioxo-4-(1-oxopropyl)cyclohexanecarboxylate], the “Seeds on Ground” value is given as 50 g/5 sq ft in experiment [1] (application time F, prohexadione-calcium treatment, control (none) 30) and 583 seeds/0.3 g in experiment [1] (application time F, prohexadione-calcium treatment, control (none) 669). The “Seeds on Plant” value in experiment [1] (application time F, prohexadione-calcium treatment, control (none) 37) is 34 g/5 sq ft; in experiment [1] (application time F, prohexadione-calcium treatment, control (none) 864) it was 822 seeds/0.3 g. For the same molecule, the “Biomass Dry Weight” value in experiment [1] (application time F, prohexadione-calcium treatment) is 188 g/5 sq ft. The “% Control” value in experiment [2] (17 DAT, application time A (seedling, day 1), rate 0.125 lb/A (140)) was determined as 0%; in experiment [2] (17 DAT, application times A + B (seedling, days 1 and 15), rate A = 0.125 (140) + B = 0.125 (140) lb/A), 0%; in experiment [2] (43 DAT, application time A (seedling, day 1), rate 0.125 lb/A (140)), 0%; in experiment [2] (43 DAT, application time C (tillering, day 35), rate 0.125 lb/A (140)), 0%; in experiment [2] (43 DAT, application times A + B (seedling, days 1 and 15), rate A = 0.125 (140) + B = 0.125 (140) lb/A), 0%; in experiment [2] (77 DAT, application time A (seedling, day 1), rate 0.125 lb/A (140)), 0%. The “% Control” value in experiment [2] (77 DAT, application time C (tillering, day 35), rate 0.125 lb/A (140)) stood at 0%; in experiment [2] (77 DAT, application times A + B (seedling, days 1 and 15), rate A = 0.125 (140) + B = 0.125 (140) lb/A), 0%; in experiment [2] (77 DAT, application times C + D (tillering, days 35 and 51), rate C = 0.125 (140) + D = 0.125 (140) lb/A) it was 0%; in experiment [2] (151 DAT, application time A (seedling, day 1), rate 0.125 lb/A (140)), 0%; in experiment [2] (151 DAT, application time C (tillering, day 35), rate 0.125 lb/A (140)), 0%; in experiment [2] (151 DAT, application times A + B (seedling, days 1 and 15), rate A = 0.125 (140) + B = 0.125 (140) lb/A), 0%. The “% Control” value in experiment [2] (151 DAT, application times C + D (tillering, days 35 and 51), rate C = 0.125 (140) + D = 0.125 (140) lb/A) is 0%; in experiment [2] (172 DAT, application time A (seedling, day 1), rate 0.125 lb/A (140)), 0%; in experiment [2] (172 DAT, application time C (tillering, day 35), rate 0.125 lb/A (140)), 0%; in experiment [2] (172 DAT, application time F (flowering to soft dough, day 155), rate 0.250 lb/A (280)) it was 60%; in experiment [2] (172 DAT, application times A + B (seedling, days 1 and 15), rate A = 0.125 (140) + B = 0.125 (140) lb/A) it was 0%; in experiment [2] (172 DAT, application times C + D (tillering, days 35 and 51), rate C = 0.125 (140) + D = 0.125 (140) lb/A), 0%. Besides, the “% Control” value came to 0% in experiment [2] (204 DAT, application time A (seedling, day 1), rate 0.125 lb/A (140)); 0% in experiment [2] (204 DAT, application time C (tillering, day 35), rate 0.125 lb/A (140)); 95% in experiment [2] (204 DAT, application time F (flowering to soft dough, day 155), rate 0.250 lb/A (280)); 0% in experiment [2] (204 DAT, application times A + B (seedling, days 1 and 15), rate A = 0.125 (140) + B = 0.125 (140) lb/A); 0% in experiment [2] (204 DAT, application times C + D (tillering, days 35 and 51), rate C = 0.125 (140) + D = 0.125 (140) lb/A).
